One experiment deals with PSN1 cells. Put plainly: Inhibition of KRas-mediated phosphorylation of ERK (Cisbio HTRF pERK), PSN1 cells. In kind it is cell-based. The settings on record: Homo sapiens, PSN1, 3 h, 3 hour compound incubation, Cisbio pERK HTRF. In short, it runs like this:
(§1)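 Growth medium is RPMI with 10% FBS, and each well receives 6,000 cells on the first day of the protocol.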

Another experiment concerns H358 cells. Description: Inhibition of KRas-mediated phosphorylation of ERK (Cisbio HTRF pERK), H358 cells. The settings on record: Homo sapiens; for inhibition at 0.1 µM: NCI-H358, single point at 100 nM, 3 hrs compound incubation. In kind it is cell-based.
Another experiment deals with KRas G12D (Homo sapiens, UniProt P01116, G12D). Description: biochemical. The settings on record: Binding to KRas (IC50 nM) G12D, TR-FRET displacement, KRas G12D.
The next experiment deals with KRas G12V (Homo sapiens, UniProt P01116, G12V). Description: biochemical. Conditions: Binding to KRas (IC50 nM) G12V, TR-FRET displacement, KRas G12V.
The next experiment deals with A549 cells. Description: Inhibition of KRas-mediated phosphorylation of ERK (Cisbio HTRF pERK), A549 cells. In kind it is cell-based. Conditions: Homo sapiens; for inhibition at 0.1 µM: single point at 100 nM, 3 hrs compound incubation.
Another experiment concerns MKN1 cells. Description: Inhibition of KRas-mediated phosphorylation of ERK (Cisbio HTRF pERK), MKN1 cells. Conditions: Homo sapiens, MKN-1, 3 hour compound incubation, Cisbio pERK HTRF. It counts as cell-based. In a few lines: as §1
The next experiment deals with KRas G12R (Homo sapiens, UniProt P01116, G12R). Put plainly: biochemical. The settings on record: Binding to KRas (IC50 nM) G12R, TR-FRET displacement, KRas G12R.
In a further experiment the test system is HCT116 cells. Description: Inhibition of KRas-mediated phosphorylation of ERK (Cisbio HTRF pERK), HCT116 cells. In kind it is cell-based. The settings on record: Homo sapiens; for inhibition at 0.1 µM: HCT-116, single point at 100 nM, 3 hrs compound incubation.
The subject of the next experiment is ASPC1 cells. Description: Inhibition of KRas-mediated phosphorylation of ERK (Cisbio HTRF pERK), ASPC1 cells. It counts as cell-based. Conditions: Homo sapiens, AsPC-1 cells; for IC50: ASPC1, 3 h, 3 hr compound incubation, Cisbio pERK HTRF; for inhibition at 0.1 µM: ASPC1, single point at 100 nM, 3 hrs compound incubation.
The subject of another experiment is H727 cells. Description: Inhibition of KRas-mediated phosphorylation of ERK (Cisbio HTRF pERK), H727 cells. It counts as cell-based. Conditions: Homo sapiens; for IC50: NCI-H727, 3 h, 3 hr compound incubation, Cisbio pERK HTRF; for inhibition at 0.1 µM: NCI-H727, single point at 100 nM, 3 hrs compound incubation.
In the next experiment the test system is H460 cells. Description: Inhibition of KRas-mediated phosphorylation of ERK (Cisbio HTRF pERK), H460 cells. In kind it is cell-based. The settings on record: Homo sapiens; for inhibition at 0.1 µM: NCI-H460, single point at 100 nM, 3 hrs compound incubation.

These results are taken from patent US20250368649A1, “TETRAHYDROPYRIDOPYRIMIDINE PAN-KRAS INHIBITORS” (Mirati Therapeutics, Inc., priority 2022, published 2025).

Bounds are passed on as bounds.

Sequence of KRas G12D (P01116 1-169 isoform P01116-2 G12D): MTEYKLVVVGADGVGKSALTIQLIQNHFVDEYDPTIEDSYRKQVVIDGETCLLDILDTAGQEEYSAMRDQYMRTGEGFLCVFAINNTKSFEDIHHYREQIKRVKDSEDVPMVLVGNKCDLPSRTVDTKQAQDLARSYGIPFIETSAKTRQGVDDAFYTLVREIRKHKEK
Sequence of KRas G12R (P01116 1-169 isoform P01116-2 G12R): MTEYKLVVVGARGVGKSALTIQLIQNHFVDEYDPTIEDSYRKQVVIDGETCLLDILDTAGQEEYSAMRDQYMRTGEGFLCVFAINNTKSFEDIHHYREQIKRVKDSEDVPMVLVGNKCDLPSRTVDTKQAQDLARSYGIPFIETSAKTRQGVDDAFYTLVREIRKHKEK
Sequence of KRas G12V (P01116 1-169 isoform P01116-2 G12V): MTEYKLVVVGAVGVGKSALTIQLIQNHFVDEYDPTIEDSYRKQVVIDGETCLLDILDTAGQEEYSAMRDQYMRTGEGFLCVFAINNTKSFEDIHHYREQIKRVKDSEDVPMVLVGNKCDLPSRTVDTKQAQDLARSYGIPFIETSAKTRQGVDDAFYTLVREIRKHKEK

In the case of `CCc1c(F)ccc2cc(O)cc(N3CCc4c(nc(OC[C@@]56CCCN5C[C@H](F)C6)nc4N4CCCn5nc(P(C)(C)=O)cc5C4)C3)c12` [Example 350, (5-(7-(8-ethyl-7-fluoro-3-hydroxynaphthalen-1-yl)-2-(((2R,7aS)-2-fluorotetrahydro-1H-pyrrolizin-7a(5H)-yl)methoxy)-5,6,7,8-tetrahydropyrido[3,4-d]pyrimidin-4-yl)-5,6,7,8-tetrahydro-4H-pyrazolo[1,5-a][1,4]diazepin-2-yl)dimethylphosphine oxide], the 50% inhibitory concentration (IC50) in the experiment with PSN1 cells is more than 10000 nM; on KRas G12D it was less than 2 nM; on KRas G12V, 3 nM; in the experiment on MKN1 cells, 10.9 nM; on KRas G12R it was less than 2 nM; in the experiment on ASPC1 cells it was 105 nM. In the experiment with H727 cells, half-maximal inhibition (IC50) was put at 178 nM. Further, the inhibition at 0.1 µM worked out at 76% in the experiment on H358 cells, 23% in the experiment on A549 cells, 10% in the experiment on HCT116 cells and 44% in the experiment with H460 cells.

On to `CCc1c(F)ccc2cc(O)cc(N3CCc4c(nc(OC[C@@]56CCCN5C[C@H](F)C6)nc4N4CCCn5nc(CNC(=O)NC)cc5C4)C3)c12` [Example 352, 1-((5-(7-(8-ethyl-7-fluoro-3-hydroxynaphthalen-1-yl)-2-(((2R,7aS)-2-fluorohexahydro-1H-pyrrolizin-7a-yl)methoxy)-5,6,7,8-tetrahydropyrido[3,4-d]pyrimidin-4-yl)-5,6,7,8-tetrahydro-4H-pyrazolo[1,5-a][1,4]diazepin-2-yl)methyl)-3-methylurea], for which the IC50 with PSN1 cells is more than 10000 nM; on KRas G12D it was less than 2 nM; on KRas G12V, 2 nM; in the experiment with MKN1 cells, 1110 nM; on KRas G12R, 2 nM; with ASPC1 cells, 1820 nM. Moreover, the concentration for half-maximal inhibition (IC50) in the experiment on H727 cells turned out to be 1950 nM. The inhibition at 0.1 µM in the experiment with H358 cells was -7%; in the experiment on A549 cells, -15%; with HCT116 cells, -2%; with H460 cells, -4%.

For `CCc1c(F)ccc2cc(O)cc(N3CCc4c(nc(OC[C@@]56CCCN5C[C@H](F)C6)nc4N4CCCn5nc(CNC(C)=O)cc5C4)C3)c12` [Example 353, N-((5-(7-(8-ethyl-7-fluoro-3-hydroxynaphthalen-1-yl)-2-(((2R,7aS)-2-fluorohexahydro-1H-pyrrolizin-7a-yl)methoxy)-5,6,7,8-tetrahydropyrido[3,4-d]pyrimidin-4-yl)-5,6,7,8-tetrahydro-4H-pyrazolo[1,5-a][1,4]diazepin-2-yl)methyl)acetamide], the IC50 in the experiment with PSN1 cells was more than 10000 nM; at KRas G12D it was less than 2 nM; on KRas G12V, 3 nM; in the experiment with MKN1 cells, 516 nM; on KRas G12R, 4 nM; in the experiment with ASPC1 cells it was 400 nM. In the experiment with H727 cells, this compound had an IC50 of 561 nM. The inhibition at 0.1 µM is -10% in the experiment on H358 cells, 26% with A549 cells, 6% with HCT116 cells and -15% in the experiment on H460 cells.

Take `CCc1c(F)ccc2cc(O)cc(N3CCc4c(nc(OC[C@@]56CCCN5C[C@H](F)C6)nc4N4CCCn5nc(C(=O)N6[C@@H]7CNC[C@H]6C7)cc5C4)C3)c12` [Example 499, (1R,5S)-3,6-diazabicyclo[3.1.1]heptan-6-yl(5-(7-(8-ethyl-7-fluoro-3-hydroxynaphthalen-1-yl)-2-(((2R,7aS)-2-fluorohexahydro-1H-pyrrolizin-7a-yl)methoxy)-5,6,7,8-tetrahydropyrido[3,4-d]pyrimidin-4-yl)-5,6,7,8-tetrahydro-4H-pyrazolo[1,5-a][1,4]diazepin-2-yl)methanone]: the IC50 with PSN1 cells was more than 10000 nM; at KRas G12D, less than 2 nM; at KRas G12V, less than 2 nM; in the experiment with MKN1 cells it was 186 nM; on KRas G12R, less than 2 nM; in the experiment on ASPC1 cells, 41 nM. The same compound returned an IC50 in the experiment with H727 cells of 168 nM. The inhibition at 0.1 µM is 57% with H358 cells; 25% in the experiment with A549 cells; 11% with HCT116 cells; 47% in the experiment with ASPC1 cells; 37% in the experiment on H727 cells; 6% in the experiment with H460 cells.

`CCc1c(F)ccc2cc(O)cc(N3CCc4c(nc(OC[C@@]56CCCN5C[C@H](F)C6)nc4N4CCCn5nc(C(=O)N6CC7CC(C6)N(C)C7)cc5C4)C3)c12` (stereo partly drawn) [Example 500, (5-(7-(8-ethyl-7-fluoro-3-hydroxynaphthalen-1-yl)-2-(((2R,7aS)-2-fluorohexahydro-1H-pyrrolizin-7a-yl)methoxy)-5,6,7,8-tetrahydropyrido[3,4-d]pyrimidin-4-yl)-5,6,7,8-tetrahydro-4H-pyrazolo[1,5-a][1,4]diazepin-2-yl)(6-methyl-3,6-diazabicyclo[3.2.1]octan-3-yl)methanone]: the IC50 in the experiment with PSN1 cells was more than 10000 nM; at KRas G12D it was less than 2 nM; on KRas G12V it was less than 2 nM; with MKN1 cells, 37.2 nM; at KRas G12R it was less than 2 nM; in the experiment with ASPC1 cells, 25 nM. In the experiment on H727 cells, this compound showed an IC50 of 203 nM. Besides, the inhibition at 0.1 µM was found to be 74% in the experiment with H358 cells; 46% in the experiment with A549 cells; 11% in the experiment on HCT116 cells; 91% with ASPC1 cells; 20% with H727 cells; 22% in the experiment with H460 cells.

As for `CCc1c(F)ccc2cc(O)cc(N3CCc4c(nc(OC[C@@]56CCCN5C[C@H](F)C6)nc4N4CCCn5nc(C(=O)N6CCC7CC6CN7C)cc5C4)C3)c12` (stereo partly drawn) [Example 501, (5-(7-(8-ethyl-7-fluoro-3-hydroxynaphthalen-1-yl)-2-(((2R,7aS)-2-fluorohexahydro-1H-pyrrolizin-7a-yl)methoxy)-5,6,7,8-tetrahydropyrido[3,4-d]pyrimidin-4-yl)-5,6,7,8-tetrahydro-4H-pyrazolo[1,5-a][1,4]diazepin-2-yl)(6-methyl-2,6-diazabicyclo[3.2.1]octan-2-yl)methanone], the IC50 was more than 10000 nM in the experiment with PSN1 cells; less than 2 nM on KRas G12D; less than 2 nM on KRas G12V; 41.2 nM in the experiment with MKN1 cells; 2 nM at KRas G12R; 23 nM with ASPC1 cells. This compound yielded an IC50 in the experiment with H727 cells of 132 nM. For the same compound, the inhibition at 0.1 µM was 95% with H358 cells; 27% in the experiment on A549 cells; 23% with HCT116 cells; 86% in the experiment with ASPC1 cells; 40% in the experiment with H727 cells; 17% in the experiment with H460 cells.

On to `CCc1c(F)ccc2cc(O)cc(N3CCc4c(nc(OC[C@@]56CCCN5C[C@H](F)C6)nc4N4CCCCn5nc(C(=O)NC(C)C)c(Cl)c5C4)C3)c12` [Example 506, 3-chloro-5-(7-(8-ethyl-7-fluoro-3-hydroxynaphthalen-1-yl)-2-(((2R,7aS)-2-fluorotetrahydro-1H-pyrrolizin-7a(5H)-yl)methoxy)-5,6,7,8-tetrahydropyrido[3,4-d]pyrimidin-4-yl)-N-isopropyl-4,5,6,7,8,9-hexahydropyrazolo[1,5-a][1,4] diazocine-2-carboxamide], for which the IC50 was 1090 nM in the experiment on PSN1 cells; 4 nM with H358 cells (NCI-H358, 3 h, 3 hr compound incubation, Cisbio pERK HTRF); less than 2 nM on KRas G12D; less than 2 nM at KRas G12V; 17 nM in the experiment with A549 cells (A549, 3 h, 3 hr compound incubation, Cisbio pERK HTRF); 9.9 nM in the experiment on MKN1 cells. Moreover, the IC50 on KRas G12R is less than 2 nM; with HCT116 cells (HCT-116, 3 h, 3 hr compound incubation, Cisbio pERK HTRF) it was 298 nM; in the experiment with ASPC1 cells, 10 nM; in the experiment with H727 cells, 5 nM; in the experiment on H460 cells (NCI-H460, 3 h, 3 hr compound incubation, Cisbio pERK HTRF) it was 81 nM. For the same compound, the inhibition at 0.1 µM with HCT116 cells stood at 34%; in the experiment on ASPC1 cells it was 97%; with H727 cells, 80%; in the experiment with H460 cells, 71%.
